Test results as given in ChEMBL document CHEMBL1130243, “Potent and selective inhibition of neuronal nitric oxide synthase by N omega-propyl-L-arginine” (J Med Chem, 1997).

Columns and labels:
[1] = target: T1, Nitric oxide synthase, inducible (Mus musculus, UniProt P29477); experiment: Compound was tested for binding affinity against recombinant inducible nitric oxide synthase (iNOS) from mouse
T1 sequence (P29477 whole entry): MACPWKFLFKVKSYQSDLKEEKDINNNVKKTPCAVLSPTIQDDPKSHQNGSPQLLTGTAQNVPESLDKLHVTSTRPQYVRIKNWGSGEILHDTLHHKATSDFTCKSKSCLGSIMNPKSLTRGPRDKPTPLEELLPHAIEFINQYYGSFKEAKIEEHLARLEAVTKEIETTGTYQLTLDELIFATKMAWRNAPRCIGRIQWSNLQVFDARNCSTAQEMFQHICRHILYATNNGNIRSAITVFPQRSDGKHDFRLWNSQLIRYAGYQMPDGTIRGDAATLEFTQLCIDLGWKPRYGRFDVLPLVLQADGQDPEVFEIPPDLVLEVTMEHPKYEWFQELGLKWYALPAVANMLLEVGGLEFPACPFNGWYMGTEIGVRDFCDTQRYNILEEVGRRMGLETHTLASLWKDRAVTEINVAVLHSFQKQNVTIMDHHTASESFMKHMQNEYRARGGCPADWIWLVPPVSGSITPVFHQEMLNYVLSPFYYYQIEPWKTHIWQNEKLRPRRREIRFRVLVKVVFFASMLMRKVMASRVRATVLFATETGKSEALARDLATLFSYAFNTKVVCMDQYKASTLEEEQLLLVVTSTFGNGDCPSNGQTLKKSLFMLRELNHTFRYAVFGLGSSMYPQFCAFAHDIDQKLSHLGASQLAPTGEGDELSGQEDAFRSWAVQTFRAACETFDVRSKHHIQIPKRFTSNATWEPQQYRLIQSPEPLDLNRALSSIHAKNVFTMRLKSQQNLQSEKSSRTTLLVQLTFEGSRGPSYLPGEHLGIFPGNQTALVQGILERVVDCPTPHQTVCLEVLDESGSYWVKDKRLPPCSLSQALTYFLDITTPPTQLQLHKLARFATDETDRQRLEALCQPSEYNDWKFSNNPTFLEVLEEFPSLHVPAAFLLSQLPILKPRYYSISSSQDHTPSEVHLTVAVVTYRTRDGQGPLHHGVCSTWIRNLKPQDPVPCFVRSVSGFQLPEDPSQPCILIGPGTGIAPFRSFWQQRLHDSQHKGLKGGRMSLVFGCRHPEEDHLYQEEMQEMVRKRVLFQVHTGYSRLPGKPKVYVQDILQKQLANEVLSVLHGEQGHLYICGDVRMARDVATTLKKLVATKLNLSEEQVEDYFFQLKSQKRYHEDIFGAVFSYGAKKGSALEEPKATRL

Nitric oxide synthase 3 = target: T2, Nitric oxide synthase 3 (Bos taurus, UniProt P29473); experiment: Compound was tested for binding affinity against Endothelial nitric oxide synthase
T2 sequence (P29473 whole entry): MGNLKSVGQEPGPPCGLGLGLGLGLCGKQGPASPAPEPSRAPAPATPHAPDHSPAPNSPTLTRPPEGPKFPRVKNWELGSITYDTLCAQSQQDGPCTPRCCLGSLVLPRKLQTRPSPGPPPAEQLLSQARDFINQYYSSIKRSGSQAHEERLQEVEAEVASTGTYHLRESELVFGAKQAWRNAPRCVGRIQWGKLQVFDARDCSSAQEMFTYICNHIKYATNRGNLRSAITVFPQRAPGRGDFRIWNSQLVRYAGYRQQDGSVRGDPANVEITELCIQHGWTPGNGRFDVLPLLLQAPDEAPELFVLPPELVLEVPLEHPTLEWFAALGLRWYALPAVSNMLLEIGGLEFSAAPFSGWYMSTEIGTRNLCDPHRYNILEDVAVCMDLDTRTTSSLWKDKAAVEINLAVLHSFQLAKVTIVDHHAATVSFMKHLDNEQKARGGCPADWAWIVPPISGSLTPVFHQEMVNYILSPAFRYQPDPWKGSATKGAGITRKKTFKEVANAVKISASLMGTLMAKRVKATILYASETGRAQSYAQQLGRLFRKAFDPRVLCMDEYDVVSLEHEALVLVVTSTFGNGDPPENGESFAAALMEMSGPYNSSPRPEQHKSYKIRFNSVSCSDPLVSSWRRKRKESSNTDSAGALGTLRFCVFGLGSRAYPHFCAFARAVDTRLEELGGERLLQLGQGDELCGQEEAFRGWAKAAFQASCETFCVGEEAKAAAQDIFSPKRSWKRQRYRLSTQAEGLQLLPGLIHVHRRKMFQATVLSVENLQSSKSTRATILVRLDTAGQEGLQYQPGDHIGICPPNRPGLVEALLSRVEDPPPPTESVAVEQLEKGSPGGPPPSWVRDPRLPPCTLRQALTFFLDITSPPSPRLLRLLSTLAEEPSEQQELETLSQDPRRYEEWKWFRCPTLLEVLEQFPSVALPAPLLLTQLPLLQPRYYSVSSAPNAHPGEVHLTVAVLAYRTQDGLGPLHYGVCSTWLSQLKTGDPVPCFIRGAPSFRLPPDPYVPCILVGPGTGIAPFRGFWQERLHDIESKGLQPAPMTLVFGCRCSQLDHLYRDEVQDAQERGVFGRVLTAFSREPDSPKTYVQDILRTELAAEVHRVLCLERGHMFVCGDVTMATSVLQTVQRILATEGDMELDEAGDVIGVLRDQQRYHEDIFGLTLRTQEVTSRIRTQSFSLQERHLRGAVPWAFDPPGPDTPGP

Ki [1] | Ki (Nitric oxide synthase 3) | SMILES
2100 nM | 3.1 µM | C=CCNC(=N)NCCCC(N)C(C)=O (stereo unspecified)
– | 8.5 µM | CCC/N=C(/N)NCCCC(N)C(=O)O (stereo unspecified)
620 nM | – | C#CC/N=C(/N)NCCCC(N)C(=O)O (stereo unspecified)

SMILES | Ki [1] | Ki (Nitric oxide synthase 3)
CC/N=C(/N)NCCCC(N)C(=O)O (stereo unspecified) | 6100 nM | 9.5 µM
